Marks after values point to notes of the source that are not given here.
What was measured:
Type in all cases: in vivo
[1] = system: CD4+T and CD8+T lymphocytes; assay: Number of CD4+T and CD8+T cells in Opdivo-resistant B16 melanoma mice; settings: drug-resistant (Opdivo) B16 melanoma mice, average of 6 high power fields
Procedure: (§1) The number of CD4+T and CD8+T lymphocytes was analyzed by immunofluorescence staining, and the average number of CD4+T and CD8+T cells infiltrated in 6 high power fields was counted.

[2] = system: PD-1/PD-L1; assay: PD-1/PD-L1 expression rate in tumor tissues of Opdivo-resistant Lewis lung cancer mice; settings: tumor tissues of drug-resistant (Opdivo) Lewis lung cancer mice
Description: (§2) The positive expression rate of PD-1/PD-L1 in tumor tissues was detected by immunohistochemical SP method.

[3] = system: B16 melanoma cell lines; assay: Establishment of Opdivo-resistant tumor model, tumor volume over time, B16 melanoma; settings: B16 melanoma mice, Opdivo 30 mg/kg i.p. every other day
Procedure: (§3) The concentration of cell lines was adjusted to 1×10^7/ml with the culture medium. 1×10^7/ml of cells were subcutaneously injected into the right armpit of mice, 0.1 ml per mouse.

[4] = system: PD-1/PD-L1; assay: PD-1/PD-L1 expression rate in tumor tissues of Opdivo-resistant B16 melanoma mice; settings: tumor tissues of drug-resistant (Opdivo) B16 melanoma mice
Description: as §2

[5] = system: CD4+T and CD8+T lymphocytes; assay: Number of CD4+T and CD8+T cells in Opdivo-resistant Lewis lung cancer mice; settings: drug-resistant (Opdivo) Lewis lung cancer mice, average of 6 high power fields
Procedure: as §1

[6] = system: Lewis lung cancer cell lines; assay: Establishment of Opdivo-resistant tumor model, tumor volume over time, Lewis lung cancer; settings: Lewis lung cancer mice, Opdivo 30 mg/kg i.p. every other day
Procedure: as §3

[7] = system: Opdivo-resistant Lewis lung cancer; assay: Antitumor effect (tumor volume, weight, inhibition rate) in Opdivo-resistant Lewis lung cancer mice
Procedure: as §3
(§4) The model mice were randomly divided into groups, eight for one group, and included test drug group 1, test drug group 2, test drug group 3, test drug group 4, positive drug Opdivo group, single drug chlorogenic acid group, test drug 1+Opdivo group, test drug 2+Opdivo group, test drug 3+Opdivo group, test drug 4+Opdivo group, and negative group, respectively.
(§5) Test drug group: from the second day after stopping administration to the model, the group received drug by intraperitoneal injection, once a day, 30 mg/kg.
(§6) Single drug group: from the second day after stopping administration to the model, the group received drug by intraperitoneal injection, once a day, 30 mg/kg.
(§7) Test drug+Opdivo group: from the second day after stopping administration to the model, the group received the test drug by intraperitoneal injection, once a day, and the test drug was stopped after administrating for 5 consecutive days; on the next day, Opdivo was intraperitoneally injected, once every other day, with the dosage of 30 mg/kg.
(§8) Positive drug group: once every other day, 30 mg/kg.
(§9) Negative group: normal saline was intraperitoneally injected, once a day, the same amount of saline.
(§10) Before each administration, the tumor volume was measured, and the experiment was stopped when the average tumor volume of negative group was greater than 1.5 cm^3.
(§11) After completion of administration, the experiment was stopped, and the mice were killed by cervical dislocation and weighed. The tumor was stripped and weighed, to calculate the tumor inhibition rate.

[8] = system: Opdivo-resistant B16 melanoma; assay: Antitumor effect (tumor volume, weight, inhibition rate) in Opdivo-resistant B16 melanoma mice
Procedure: as §3, §4, §5, §6, §7, §8, §9, §10, §11

[9] = 30 mg/kg i.p. once a day, + Opdivo groups: test drug 5 days, then Opdivo 30 mg/kg every other day
[10] = 30 mg/kg i.p., + Opdivo groups 30 + 30 mg/kg

Opdivo: human programmed death receptor-1 (PD-1) blocking antibody; PD-1 inhibitor
CD4 + T cells (number) [1]: 74.63 ± 6.35 | CD8 + T cells (number) [1]: 88.61 ± 5.82 | Expression rate of PD-1/PD-L1, Positive PD-L1 [2]: 72.77% | Tumor volume, Model group (cm^3) ([3]; 2 d after inoculation): 0.00 ± 0.000 ** cm^3 | Tumor volume, Model group (cm^3) ([3]; 4 d after inoculation): 0.084 ± 0.047 ** cm^3 | Tumor volume, Model group (cm^3) ([3]; 6 d after inoculation): 0.106 ± 0.043 ** cm^3 | Tumor volume, Model group (cm^3) ([3]; 8 d after inoculation): 0.128 ± 0.062 ** cm^3 | Tumor volume, Model group (cm^3) ([3]; 10 d after inoculation): 0.179 ± 0.147 ** cm^3 | Tumor volume, Model group (cm^3) ([3]; 12 d after inoculation): 0.286 ± 0.116 ** cm^3 | Tumor volume, Model group (cm^3) ([3]; 14 d after inoculation): 0.881 ± 0.204 cm^3 | Expression rate of PD-1/PD-L1, Positive PD-L1 [4]: 85.87% | CD4 + T cells (number) [5]: 64.22 ± 7.74 | CD8 + T cells (number) [5]: 117.81 ± 7.99 | Tumor volume, Model group (cm^3) ([6]; 4 d after inoculation): 0.00 ± 0.000 ** cm^3 | Tumor volume, Model group (cm^3) ([6]; 6 d after inoculation): 0.073 ± 0.052* cm^3 | Tumor volume, Model group (cm^3) ([6]; 8 d after inoculation): 0.098 ± 0.075** cm^3 | Tumor volume, Model group (cm^3) ([6]; 10 d after inoculation): 0.121 ± 0.101** cm^3 | Tumor volume, Model group (cm^3) ([6]; 12 d after inoculation): 0.164 ± 0.084** cm^3 | Tumor volume, Model group (cm^3) ([6]; 14 d after inoculation): 0.226 ± 0.113** cm^3 | Tumor volume, Model group (cm^3) ([6]; 16 d after inoculation): 0.464 ± 0.154* cm^3 | Tumor volume, Model group (cm^3) ([6]; 18 d after inoculation): 0.984 ± 0.236 cm^3 | continuous treatment effect / effect on tumor volume control (in words) [7]: not obvious | Tumor volume (cm^3) [7, 9]: 1.616 ± 0.772 cm^3 | Tumor inhibition rate (%) [7, 10]: 2.38% | Tumor weight [7, 10]: 2.52 ± 0.83 g | continuous treatment effect / effect on tumor volume control (in words) [8]: not obvious | Tumor volume (cm^3) [8, 9]: 1.793 ± 0.842 cm^3 | Tumor inhition rate (%) [8, 10]: 1.41% | Tumor weight [8, 10]: 2.79 ± 1.13 g

Reference: patent US20210085630A1, “PHARMACEUTICAL COMPOSITION AND USE THEREOF IN PREPARING DRUG FOR TREATING TUMOR MULTI-DRUG RESISTANCE” (SICHUAN JIUZHANG BIOLOGICAL SCIENCE AND TECHNOLOGY CO., LTD., priority 2018, published 2021)
